From US11607421B2, “Ethanolamine-based lipid biosynthetic compounds, method of making and use thereof” (Metanoi Therapeutics, Inc., priority 2016, dated 2023)
Values after ≈ are worked out from the molar mass of the structure shown.

Columns and labels:
[1] = Stability in simulated intestinal fluid (SIF); type: in vitro ADME; conditions: 10 μM, SIF pH 6.8, over time (to 120 min)
Protocol: Samples (100 μl) were drawn at 0, 15, 30 and 60 min from SGF reaction-vials and at 0, 30, 60 and 120 min from SIF reaction-vials, quenched with acetonitrile, vortex-mixed, and centrifuged before supernatant analysis by LC-MS/MS analysis. […] For PK studies, a sparse sampling design with 3 mice per time point was used to collect blood samples at 5, 10, 15, 30 min and 1, 2, 3, 4, 5 and 6 h in K2EDTA-coated tubes. The pharmacokinetic parameters (AUClast, Cmax, CL and Vss) were calculated using non-compartmental analysis tool of Phoenix WinNonlin software (version 6.3).
Given the extreme pH and various digestive enzymes, the GI tract presents a harsh environment to any ingested xenobiotic. Thus, many potential drug candidates are degraded in the GI tract, explaining their decreased bioavailability or inability to reach the target at effective concentrations. Simulated gastric fluid (SGF; pH 1.2) and simulated intestinal fluid (SIF; pH 6.8) closely mimic the GI tract environment and are amenable in vitro systems to evaluate degradation of a compound in GI tract (US Pharmacopoia).
Simulated gastric fluid was prepared as per U.S. Pharmacopeia (USP) methods. Sodium chloride (2 g) and pepsin (3.2 g, from porcine stomach mucosa) were dissolved in 7.0 ml hydrochloric acid and Milli-Q water to make up the volume to 1000 ml and the pH was adjusted to 1.2. […]

[2] = Acute toxicity, single oral limit dose; type: in vivo, Sprague-Dawley (SD) rats; conditions: single oral dose of 5 g/kg, five male and five female rats, monitored one week
[3] = set-up: species or system BALB/c mice; conditions: mouse, in vivo, 40 mg/kg
Protocol: Mice were sacrificed after 24, 48 h and 1, 2, 3, 4 weeks and spleens were collected. Total splenocytes were counted after lysis of RBC with RBC lysis buffer. After this, splenocytes where incubated with anti-CD16/CD32 antibody to block Fc receptors and then labeled with anti-CD3-APC, anti-CD4-Alexa488, anti-CD8-Alexa488, anti-DX5-FITC, or anti-CD19-FITC antibodies according to the manufacturer's instructions. Labeled cells were analyzed by flow cytometry using an LSRFortessa Flow cytometer (BD Biosciences, CA). Data from this analysis was analyzed using FlowJo software (TreeStar, OR).

PC-3 cells [4] = assay: Clonogenic cell survival (colony) assay; type: cell-based, human; conditions: 2 mg/ml, 48 h treatment, colonies after 10 days
Protocol: Next, a clonogenic cell survival assay was performed to assess the reproductive capacity of cells upon drug removal.
(§1) After 48 h, drug containing medium was replaced by medium containing MTT (tetrazolium bromide) at a concentration of 0.5 mg/ml. The yellow tetrazolium salt is reduced to insoluble purple formazan by viable cells. After 4 h of incubation in dark, formazan crystals produced by viable cells were dissolved by 200 μl DMSO and the amount of formazan crystals formed was quantified by recording the absorbance at 570 nm using multi-well plate reader. […] After 10 days, colonies were fixed with 4% formaldehyde, stained with crystal violet and counted.

C4-2B = assay: MTT cell proliferation assay; type: cell-based; conditions: 0.5 mg/ml Etn, 48 h; range given for PC-3, DU145 and C4-2B together
Protocol: as §1

CFPAC-1 = assay: MTT cell proliferation assay; type: cell-based; conditions: Homo sapiens, 48 h, pH 7.4
Protocol: as §1

MDA-MB-468 = assay: MTT cell proliferation assay; type: cell-based; conditions: Homo sapiens, 48 h, pH 7.4
Protocol: as §1

OVCAR-5 = assay: MTT cell proliferation assay; type: cell-based; conditions: Homo sapiens, 48 h, pH 7.4
Protocol: as §1

DU145 = assay: MTT cell proliferation assay; type: cell-based, human; conditions: 0.5 mg/ml Etn, 48 h; range given for PC-3, DU145 and C4-2B together
Protocol: as §1

RWPE-1 = assay: MTT cell proliferation assay, normal prostate cells; type: cell-based; conditions: 0.5 mg/ml Etn, 48 h
Protocol: as §1

PC-3 cells [5] = assay: Intracellular levels of Etn and PhosE by LC-MS/MS; type: cell-based, human; conditions: 1 mg/ml, 48 h, pH 7.4
in vivo = assay: in vivo; set-up: species or system SD rats; conditions: SD, rat, po, 40 mg/kg
Excerpt: These formulations differ in pH and/or acid used to adjust the pH.

PC-3 cells [6] = assay: Oxygen consumption rate (OCR), oxygen electrode; type: cell-based, human; conditions: 2 mg/ml Etn, 48 h, 1×10^6 cells/ml
Protocol: OCR was measured using an oxygen electrode.
OCRs were measured using a computer-interfaced oxygen electrode (Hansatech Instruments, Inc., Norfolk, England) by monitoring the initial rate of oxygen consumption at 37° C. and atmospheric oxygen concentration (230 μM O2).

plasma proteins = assay: Binding to proteins in plasma (ultrafiltration); type: in vitro ADME; conditions: pH 7.4, 37° C., 30 min
Protocol: Plasma from human, dog, rat and mouse were thawed and incubated at 37° C. The pH of the plasma was adjusted to 7.4 using dilute hydrochloric acid. A 5 μL aliquot of ethanolamine (2 mM) was spiked into 995 μL of plasma and incubated at 37° C. for 30 min in CO2 incubator. One mL aliquots of plasma were transferred to ultrafiltration tubes for analysis. All ultrafiltration tubes were centrifuged at 1000 g for 20 min. Samples from top and bottom chamber of ultrafiltration tube were collected. Equal volume of blank plasma and ultrafiltrate were mixed to ultrafiltrate and plasma to make the matrix same. Samples were processed by using acetonitrile containing internal standard and subjected to LC/MS/MS analysis.

CYP2C8 = CYP2C8 (Homo sapiens, UniProt P10632); assay: CYP inhibition in human liver microsomes
Chain of CYP2C8 (P10632 whole entry): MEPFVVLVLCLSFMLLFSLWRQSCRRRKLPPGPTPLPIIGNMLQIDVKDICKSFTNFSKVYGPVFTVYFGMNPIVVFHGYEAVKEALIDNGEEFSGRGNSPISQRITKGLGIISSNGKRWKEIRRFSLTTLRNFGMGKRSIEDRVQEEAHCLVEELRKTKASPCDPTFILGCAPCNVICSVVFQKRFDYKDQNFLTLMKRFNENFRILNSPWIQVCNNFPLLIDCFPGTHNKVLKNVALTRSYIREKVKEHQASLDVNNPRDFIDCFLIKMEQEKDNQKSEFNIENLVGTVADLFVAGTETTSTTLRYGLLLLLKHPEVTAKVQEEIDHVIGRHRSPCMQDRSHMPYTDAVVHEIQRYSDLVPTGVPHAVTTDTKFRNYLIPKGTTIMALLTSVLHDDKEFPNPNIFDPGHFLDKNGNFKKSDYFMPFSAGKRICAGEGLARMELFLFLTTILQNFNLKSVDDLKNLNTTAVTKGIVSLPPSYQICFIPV

PC-3 cells [7] = assay: Glucose and glutamine contents in cultured cells (LC-MS/MS); conditions: 2 mg/ml Etn for 48 h vs control cells

SMILES: NCCO [Etn, monoethanolamine]
- stability in SIF [1]: remained unchanged
- acute toxicity [2]: all rats were alive and did not display any sign of distress or toxicity
- immunotoxicities [3]: does not induce immunotoxicities
- decrease in colony numbers compared to control cells (PC-3 cells [4]): ~97%
- reduction of survival (C4-2B): 30-52%
- IC50 (CFPAC-1): 1900 mg/L (≈ 31.1 mM)
- IC50 (MDA-MB-468): 550 mg/L (≈ 9 mM)
- IC50 (OVCAR-5): 290 mg/L (≈ 4.75 mM)
- reduction of survival (DU145): 30-52%
- reduction of survival (RWPE-1): remained unaffected
- increase in intracellular PhosE levels compared to control cells (PC-3 cells [5]): ~40 fold
- Tmax (in vivo; female, pH 5): 19.8 min
- AUC(0-t) (in vivo; female, pH 5, AUClast): 33.8 µg·h/mL
- Cmax (in vivo; female, pH 5, Cmax): 24.1 µg/mL
- Tmax (in vivo; female, pH 7.4): 19.8 min
- AUC(0-t) (in vivo; female, pH 7.4, AUClast): 29 µg·h/mL
- Cmax (in vivo; female, pH 7.4, Cmax): 25 µg/mL
- Tmax (in vivo; male, pH 5): 19.8 min
- AUC(0-t) (in vivo; male, pH 5, AUClast): 29.5 µg·h/mL
- Cmax (in vivo; male, pH 5, Cmax): 27.1 µg/mL
- Tmax (in vivo; male, pH 7.4): 19.8 min
- AUC(0-t) (in vivo; male, pH 7.4, AUClast): 27.3 µg·h/mL
- Cmax (in vivo; male, pH 7.4, Cmax): 23.7 µg/mL
- reduction of OCR compared to controls (PC-3 cells [6]): ~26%
- percent bound (plasma proteins; dog plasma): less than 85%
- percent bound (plasma proteins; human plasma): less than 85%
- percent bound (plasma proteins; mouse plasma): less than 85%
- percent bound (plasma proteins; rat plasma): less than 85%
- IC50 (CYP2C8): > 100 µM
- glucose and glutamine contents (PC-3 cells [7]): significantly reduced
